Measured values: US6495571B1, “Pyridine compounds, use and preparation thereof” (Southern Research Institute, priority 1999, dated 2002)
Like-named read-outs stand apart in the source and are kept apart here. Marks after values point to notes of the source that are not given here.

What was measured:
[1] = system: human MX-1 mammary tumor (sc, 30-40 mg fragments); assay: In vivo antitumor activity, s.c.-implanted MX-1 xenograft; design: species or system Athymic mice (Ncr-nu); settings: for IP dosage marked (LD50): Days 12-16, sc MX-1 bearing mice
[2] = system: human MX-1 mammary tumor (ic, 10^6 cells); assay: In vivo antitumor activity, i.c.-implanted MX-1 xenograft; settings: for Median % ILS (dying mice only) / Tumor-Free-Surv/Total: Days 1-5; for activity against i.c.-implanted tumor (in words): in comparison to PEN and DM-PEN; for Median % ILS (based on dying mice only) / Survivors: optimal doses (LD10 or less), schedule QD1-5, administered LP.
[3] = Cytotoxicity in vitro; format: cell-based
[4] = system: P388/0 murine leukemia
[5] = system: P388/CPA (cyclophosphamide-resistant) leukemia; format: in vivo, CD2F1 female mice; settings: Q1D × 5 (1)
[6] = system: P388/L-PAM (melphalan-resistant) leukemia
[7] = system: P388/BCNU (carmustine-resistant) leukemia; assay: Antitumor activity against IP-implanted P388/BCNU leukemia; settings: Q1D × 5 (1)
[8] = oral (gavage) 135 mg/kg/dose, Days 12-16
[9] = oral (gavage) 135 mg/kg/dose, Days 13-17
[10] = IP 60.0 mg/kg/dose, Q1D × 5 (1)
[11] = IP 90.0 mg/kg/dose, Q1D × 5 (1)
[12] = IP 135.0 mg/kg/dose, Q1D × 5 (1)
[13] = IP 15.0 mg/kg/dose, Q1D × 1 (1)
[14] = IP 20.0 mg/kg/dose, Q1D × 1 (1)

COc1nc(C(Cl)(Cl)Cl)c(Cl)c(OC(=O)c2ccco2)c1Cl [DM-F-PEN]
T-C ([1]; IP 90 mg/kg/dose, Days 12-16): >41.2 days | Tumor-Free-Surv/Total ([1]; IP 90 mg/kg/dose, Days 12-16): 5/5 | Median % ILS (dying mice only) ([2]; IP 135 mg/kg/dose): +108% | Tumor-Free-Surv/Total ([2]; IP 135 mg/kg/dose): 2/5 | activity against i.c.-implanted tumor (in words) [2]: significant activity | Median % ILS (based on dying mice only) [2]: 108^c % | Survivors [2]: 2/5

COc1nc(C(Cl)(Cl)Cl)c(Cl)c(OC(=O)CI)c1Cl [DM-IA-PEN]
T-C ([1]; IP 60 mg/kg/dose, Days 12-16): 20.3 days | Tumor-Free-Surv/Total ([1]; IP 60 mg/kg/dose, Days 12-16): 1/5 | IP dosage marked (LD50) [1]: 60 (LD50) mg/kg/dose

COc1nc(C(Cl)(Cl)Cl)c(Cl)c(OC(=O)c2ccncc2)c1Cl [DM-IN-PEN]
T-C ([1]; IP 90 mg/kg/dose, Days 12-16): >38.6 days | Tumor-Free-Surv/Total ([1]; IP 90 mg/kg/dose, Days 12-16): 3/5 | IP dosage marked (LD50) [1]: 90 (LD50) mg/kg/dose

COCC(=O)Oc1c(Cl)c(OC)nc(C(Cl)(Cl)Cl)c1Cl [DM-MA-PEN]
T-C [1, 8]: >41.0 days | Tumor-Free-Surv/Total [1, 8]: 5/5 | Median % ILS (dying mice only) ([2]; IP 90 mg/kg/dose): +125% | Tumor-Free-Surv/Total ([2]; IP 90 mg/kg/dose): 1/5 | activity against i.c.-implanted tumor (in words) [2]: significant activity | Median % ILS (based on dying mice only) [2]: 126^a % | Survivors [2]: 1/5 | Median % ILS (dying mice only) ([2]; oral (gavage) 90 mg/kg/dose): +110% | Tumor-Free-Surv/Total ([2]; oral (gavage) 90 mg/kg/dose): 1/5

COc1nc(C(Cl)(Cl)Cl)c(Cl)c(OC(=O)c2ccc([N+](=O)[O-])cc2)c1Cl [DM-NB-PEN]
T-C ([1]; IP 135 mg/kg/dose, Days 12-16): >38.6 days | Tumor-Free-Surv/Total ([1]; IP 135 mg/kg/dose, Days 12-16): 5/5

COc1nc(C(Cl)(Cl)Cl)c(Cl)c(OC(=O)c2ccc([N+](=O)[O-])o2)c1Cl [DM-NF-PEN]
T-C ([1]; IP 90 mg/kg/dose, Days 12-16): >41.2 days | Tumor-Free-Surv/Total ([1]; IP 90 mg/kg/dose, Days 12-16): 4/5 | Median % ILS (dying mice only) ([2]; IP 135 mg/kg/dose): +59% | Tumor-Free-Surv/Total ([2]; IP 135 mg/kg/dose): 0/5

CCCCCCCC(=O)Oc1c(Cl)c(OC)nc(C(Cl)(Cl)Cl)c1Cl [DM-O-PEN]
Median % ILS (dying mice only) ([2]; IP 90 mg/kg/dose): +121% | Tumor-Free-Surv/Total ([2]; IP 90 mg/kg/dose): 0/5 | activity against i.c.-implanted tumor (in words) [2]: significant activity | Median % ILS (based on dying mice only) [2]: 121^b % | Survivors [2]: 0/5

COc1nc(C(Cl)(Cl)Cl)c(Cl)c(OC(=O)C(C)(C)C)c1Cl [DM-P-PEN]
T-C ([1]; IP 135 mg/kg/dose, Days 11-15): >42.7 days | Tumor-Free-Surv/Total ([1]; IP 135 mg/kg/dose, Days 11-15): 5/5 | T-C [1, 9]: 0.9 days | Tumor-Free-Surv/Total [1, 9]: 0/5 | Median % ILS (dying mice only) ([2]; IP 135 mg/kg/dose): +64% | Tumor-Free-Surv/Total ([2]; IP 135 mg/kg/dose): 0/5 | Median % ILS (dying mice only) ([2]; oral (gavage) 135 mg/kg/dose): +20% | Tumor-Free-Surv/Total ([2]; oral (gavage) 135 mg/kg/dose): 0/5

COc1nc(C(Cl)(Cl)Cl)c(Cl)c(O)c1Cl [DM-PEN, 3,5-dichloro-2-methoxy-4-hydroxy-6-(trichloromethyl)pyridine]
activity as cytotoxic agents in vitro [3]: inactive | 50-DAY SURV./TOTAL [4, 10]: 0/6 | 50-DAY SURV./TOTAL [4, 11]: 0/6 | MEDIAN DAY OF DEATH [4, 11]: 19.0 | 50-DAY SURV./TOTAL [4, 12]: 0/6 | APPROX. NET LOG10 CHANGE IN TUMOR BURDEN AT END OF Rx [4, 12]: TOXIC | MEDIAN DAY OF DEATH [4, 12]: 8.5 | 50-DAY SURV./TOTAL ([5]; IP 60.0 mg/kg/dose): 0/6 | % ILS ([5]; IP 60.0 mg/kg/dose): +22% | MEDIAN DAY OF DEATH ([5]; IP 60.0 mg/kg/dose): 13.5 | 50-DAY SURV./TOTAL ([5]; IP 90.0 mg/kg/dose): 0/6 | % ILS ([5]; IP 90.0 mg/kg/dose): +54% | 50-DAY SURV./TOTAL ([5]; IP 135.0 mg/kg/dose): 0/6 | % ILS ([5]; IP 135.0 mg/kg/dose): +31% | MEDIAN DAY OF DEATH ([5]; IP 135.0 mg/kg/dose): 14.5 | 50-DAY SURV./TOTAL [6, 10]: 0/6 | MEDIAN DAY OF DEATH [6, 10]: 13.5 | 50-DAY SURV./TOTAL [6, 11]: 0/6 | 50-DAY SURV./TOTAL [6, 12]: 0/6 | Lethality of the dosage (LD mark beside % ILS) [6, 12]: LD33 | activity in this tumor model (in words) ([6]; mouse, in vivo): none of the three showed significant activity | cures ([2]; Table 2 conditions): not | Median % ILS (based on dying mice only) [2]: 60% | Survivors [2]: 0/5 | 50-DAY SURV./TOTAL ([7]; IP 60.0 mg/kg/dose): 0/6 | % ILS ([7]; IP 60.0 mg/kg/dose): +33% | APPROX. NET LOG10 CHANGE IN TUMOR BURDEN AT END OF Rx ([7]; IP 60.0 mg/kg/dose): +0.8 | 50-DAY SURV./TOTAL ([7]; IP 90.0 mg/kg/dose): 0/6 | APPROX. NET LOG10 CHANGE IN TUMOR BURDEN AT END OF Rx ([7]; IP 90.0 mg/kg/dose): −0.6 | MEDIAN DAY OF DEATH ([7]; IP 90.0 mg/kg/dose): 14.0 | 50-DAY SURV./TOTAL ([7]; IP 135.0 mg/kg/dose): 0/6 | % ILS ([7]; IP 135.0 mg/kg/dose): +88% | Lethality of the dosage (LD mark beside % ILS) ([7]; IP 135.0 mg/kg/dose): LD17

COc1nc(C(Cl)(Cl)Cl)c(Cl)c(OC(=O)Cc2cccs2)c1Cl [DM-TA-PEN]
T-C ([1]; IP 90 mg/kg/dose, Days 12-16): >41.2 days | Tumor-Free-Surv/Total ([1]; IP 90 mg/kg/dose, Days 12-16): 3/5 | Median % ILS (dying mice only) ([2]; IP 90 mg/kg/dose): +75% | Tumor-Free-Surv/Total ([2]; IP 90 mg/kg/dose): 0/5

COc1nc(C(Cl)(Cl)Cl)c(Cl)c(OC(=O)c2cccs2)c1Cl [DM-TC-PEN]
T-C ([1]; IP 90 mg/kg/dose, Days 12-16): >41.2 days | Tumor-Free-Surv/Total ([1]; IP 90 mg/kg/dose, Days 12-16): 4/5 | Median % ILS (dying mice only) ([2]; IP 135 mg/kg/dose): +100% | Tumor-Free-Surv/Total ([2]; IP 135 mg/kg/dose): 0/5 | activity against i.c.-implanted tumor (in words) [2]: significant activity | Median % ILS (based on dying mice only) [2]: 100^d % | Survivors [2]: 0/5

COc1nc(C(Cl)(Cl)Cl)c(Cl)c(OC(=O)c2c(Cl)cc(Cl)cc2Cl)c1Cl [DM-TCB-PEN]
Median % ILS (dying mice only) ([2]; IP 135 mg/kg/dose): +92% | Tumor-Free-Surv/Total ([2]; IP 135 mg/kg/dose): 1/5

N[C@@H](Cc1ccc(N(CCCl)CCCl)cc1)C(=O)O [L-PAM (melphalan), melphalan]
50-DAY SURV./TOTAL [4, 13]: 6/6 | 50-DAY SURV./TOTAL [4, 14]: 5/6 | % ILS [4, 14]: +208% | APPROX. NET LOG10 CHANGE IN TUMOR BURDEN AT END OF Rx [4, 14]: ca −6.8 | MEDIAN DAY OF DEATH [4, 14]: 34.0 | 50-DAY SURV./TOTAL [6, 13]: 0/6 | % ILS [6, 13]: +14% | APPROX. NET LOG10 CHANGE IN TUMOR BURDEN AT END OF Rx [6, 13]: −1.8 | MEDIAN DAY OF DEATH [6, 13]: 18.0 | 50-DAY SURV./TOTAL [6, 14]: 0/6 | % ILS [6, 14]: +14% | APPROX. NET LOG10 CHANGE IN TUMOR BURDEN AT END OF Rx [6, 14]: −1.8 | MEDIAN DAY OF DEATH [6, 14]: 18.0
